{"source": "patent US20250090626A1", "about": "“NEW PEPTIDE AND USES THEREOF” (Neo Cremar Co., Ltd., priority 2021, published 2025)", "key": {"C2C12 cells": {"tested_on": "C2C12 cells", "assay": "mRNA expression of myodifferentiation and sarcopenia factors (real-time PCR)", "type": "cell-based, mouse", "settings": "C2C12 myodifferentiation, peptide-treated vs untreated", "experimental": "After adding 1 ml of TRIzol™ reagent, the cells were crushed using a sonicator. After centrifugation of the crushed sample (12,000 rpm, 10 min, 4° C.), the supernatant was transferred to a new tube, added with 200 μl of chloroform, and left at room temperature for 10 minutes. After 10 minutes, centrifugation (12,000 rpm, 10 min, 4° C.) was performed, yielded a transparent supernatant. Next, 500 μl of isopropanol was added, the mixture was left for 10 minutes, and centrifugation was performed to obtain RNA pellets. After washing by adding 70% ethanol (distilled water treated with ethanol+diethylpyrocarbonate (hereinafter referred to as DEPC)) to the RNA pellets, complete removal and drying were followed. The dried transparent RNA was added with DEPC-treated distilled water and then stored at −80° C. Total RNA volume was measured by nanodrop, and the 18s and 28s bands were detected in 1.2% agarose gel. cDNA was synthesized with 2 μg of total RNA, random hexamer primers, and reverse transcriptase (25° C.: 10 min, 37° C.: 120 min, 85° C.: 5 min).\nReal-time PCR (RT-PCR) was performed for detecting gene expression. For observation of real-time gene expression, gene expression was analyzed using the Power SYBR Green PCR Master Mix, which includes fluorescent materials of SYBR green (7500 Real-time PCR system). The PCR primer was designed with Primer 3 software (http://frodo.wi.mit.edu) according to the nucleotide sequence secured from NCBI GenBank. PCR was performed 40 times at 95° C. for 10 minutes, again at 95° C. for 33 seconds, at gene primer temperature (tm) for 33 seconds, and at 72° C. for 33 seconds. Gene expression values were analyzed through the analysis of c(t) values obtained through real-time PCR analysis (fold change 2-^ΔΔCt formula). Setting the gene expression value of the untreated cells to 1, the gene expression value of the treated cells was calculated. In the analysis of gene c(t) values, normalization was conducted with the glyceraldehyde-3-phosphate dehydrogenase (GAPDH)."}, "3T3L1 cells": {"tested_on": "3T3L1 cells", "assay": "3T3L1 cell proliferation (MTT method)", "type": "cell-based, mouse", "settings": "3T3L1, Ac-MIF1 1000 nM, 2 days, FIG. 13A", "experimental": "3T3L1 cells, mouse fibroblasts, were cultured in Dulbecco's Modified Eagle's Medium (DMEM)+10% fetal bovine serum (FBS)+1% penicillin/streptomycin (P/S). To validate the effect of MIF peptide, 3T3L1 cells (2×10^3 cells/ml) were placed in a 12-well cell culture dish, attached for 24 hours, and treated with MIF peptide (1000 nM) for 2 days, followed by observation of cell proliferation by MTT method. The medium was replaced every 2 days, and the cells were cultured at 37° C.\nTo validate cell proliferation, the culture medium of the cells was removed, the cells were washed with DMEM, 500 μl of MTT reagent (0.5 mg/ml) dissolved in phosphate buffered saline (PBS) was added to each well, and the cells were left at 37° C. for 1 hour. The reaction solution was removed, and 1000 μl of DMSO was added to each well. Purple formazan crystals were completely dissolved in DMSO, and the absorbance was measured at 540 nm."}, "C57BL/6 mice": {"tested_on": "C57BL/6 mice", "assay": "Myoregeneration effect upon injection of Ac-MIF1 peptide in cardiotoxin-damaged gastrocnemius", "type": "in vivo, mouse", "from_the_text": "The male C57BL/6 mice were purchased from Dae Han Bio Link Co., Ltd., four of which per cage were kept in a temperature-controlled room with a 12-hour light cycle. The animals were fed with a standard rodent diet containing 4.0% (wt/wt) total fat (Rodent NIH-31 Open Formula Auto; Zeigler Bros., Inc., Gardners, PA, USA) and water. All experiments involving animals complied with the guidelines (YUMC-AEC2015-006) issued by the Animal Control Committee of Youngnam University's Animal Research Institute. The MSTN knock-out mouse was provided by a laboratory at Seoul National University. Normal, MSTN+/− (heterozygous), and MSTN−/− (homozygous) adipose tissues were fixed by collecting from 6-week-old mice and stored at −80° C. until required for analysis.\nMuscle tissues containing paraffin was subjected to deparaffinization with xylene and ethanol and hydration, respectively, and the tissue was soaked in 0.3% hydrogen peroxide water (H2O2)/methanol for 15 minutes to stop endogenous peroxidase activity. Then, tissues were stained with hematoxylin/eosin for morphological observation or reacted with 1% normal goat serum at room temperature for 1 hour to block a reaction with non-specific antibodies, followed by a reaction with the primary antibody (1:50) at 4° C. for over 16 hours. After 16 hours, washing was performed 3 times with PBS, followed by a reaction with secondary antibody (1:100) with HRP conjugated at room temperature for 1 hour. Horse radish peroxidase-conjugated streptavidin was added to detect the expression of the protein, followed by observation under a microscope.\nIn order to observe the myoregeneration effect following MIF peptide injection, mice were injected with Ac-MIF 1 peptide and injected/uninjected with cardiotoxin (hereinafter referred to as CTX) into the muscle, followed by observation of the morphology and regeneration of the muscle. A day after C57BL/6 mice were injected with Ac-MIF1 peptide (1.125 mM), […] cardiotoxin was injected into the gastrocnemius. Muscle tissues were sampled 7 days after CTX injection.\nParaffin-embedded muscle sections were deparaffinized using xylene, rehydrated using a concentration gradient of ethanol, stained with hematoxylin and eosin, observed under an optical microscope, magnified at 400× scale, and photographed, followed by measurement of the diameter of muscle fibers using Image J software."}, "[1]": {"settings": "muscle injected with Ac-MIF1 peptide, 7 days after CTX, FIG. 10A"}, "[2]": {"settings": "muscle injected with Ac-MIF1 peptide, 7 days after CTX, FIG. 10B"}}, "note": "No end group written: not given here."}
{"substance": "Ac-VDFEAFWDWG [Ac-MIF1, MIF1 with N-terminus acetylated, 10 mer]", "values": [{"measurement": "MYL2 mRNA expression", "setting": "C2C12 cells", "result": "increased"}, {"measurement": "MYOD mRNA expression", "setting": "C2C12 cells", "result": "increased"}, {"measurement": "proliferation of 3T3L1 cells, decrease compared to cells without peptide treatment", "setting": "3T3L1 cells", "result": 8, "unit": "%"}, {"measurement": "muscle weight compared to muscle without injection", "setting": "C57BL/6 mice; 7 days after CTX injection", "result": "no significant difference"}, {"measurement": "muscle weight", "setting": "C57BL/6 mice; CTX + Ac-MIF 1, gastrocnemius, 7 days after CTX injection", "result": "0.140 ± 0.003", "unit": "g"}, {"measurement": "MSTN mRNA expression in muscle", "setting": "C57BL/6 mice; [1]", "result": "increased"}, {"measurement": "MYL2 mRNA expression in muscle", "setting": "C57BL/6 mice; [1]", "result": "increased"}, {"measurement": "MYOD mRNA expression in muscle", "setting": "C57BL/6 mice; [1]", "result": "increased"}, {"measurement": "MYL2 protein expression in muscle", "setting": "C57BL/6 mice; [2]", "result": "increased"}, {"measurement": "MYOD protein expression in muscle", "setting": "C57BL/6 mice; [2]", "result": "increased"}, {"measurement": "MYOG protein expression in muscle", "setting": "C57BL/6 mice; [2]", "result": "increased"}, {"measurement": "Pax7 protein expression in muscle", "setting": "C57BL/6 mice; [2]", "result": "increased"}, {"measurement": "diameter of the muscle fibers compared to without peptide injection", "setting": "C57BL/6 mice; muscle injected with Ac-MIF1 peptide, 7 days after CTX, FIG. 10C", "result": "increased"}]}
